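Five compound concentrations were applied to cells in 96-well plates for 48 hours; endpoints were derived by simple linear interpolation of the resulting dose-response curve. GI50: concentration for 50% inhibition of growth.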 Activity calls are given as the source filed them. Cut-off read from the data, not from the text of the source: active = GI50 up to about 1.1 µM and inactive = higher.
Experiments:
Assay in all cases: NCI anticancer screen, dose series, 48 h
[1] = test system: DU-145
[2] = test system: EKVX
[3] = test system: HCC 2998
[4] = test system: HCT-116
[5] = test system: HCT-15
[6] = test system: HT-29
[7] = test system: K562
[8] = test system: MDA-MB-435
[9] = test system: Malme-3M
[10] = test system: NCI-H226
[11] = test system: NCI-H23
[12] = test system: NCI-H522
[13] = test system: NCI/ADR-RES
[14] = test system: OVCAR-3
[15] = test system: PC-3
[16] = test system: SF-268
[17] = test system: SK-MEL-28
[18] = test system: SK-MEL-2
[19] = test system: SK-MEL-5
[20] = test system: SW-620

Measured: GI50

CCOC(=O)CN1C(=O)c2cc([N+](=O)[O-])cc3cc([N+](=O)[O-])cc(c23)C1=O
17.3 µM: [5]
inactive: [1] > 25.3 µM | [2] > 100 µM | [3] > 100 µM | [4] 15 µM | [6] 34.7 µM | [7] 5.13 µM | [8] 13.8 µM | [9] 43.5 µM | [10] 45.4 µM | [11] 99.3 µM | [12] 4.21 µM | [13] > 80.4 µM | [14] 23.2 µM | [15] > 100 µM | [16] 18.4 µM | [17] 49.3 µM | [18] 22.5 µM | [19] 27.3 µM | [20] 68.5 µM

Brc1ccc2[nH]cc(-c3csc(-c4ccccn4)n3)c2c1
16.9 µM: [5]
inactive: [1] 17.9 µM | [2] 9.44 µM | [3] 8.75 µM | [4] 15.1 µM | [6] 5.12 µM | [7] 5.38 µM | [8] 41.8 µM | [9] 22.1 µM | [10] 11.6 µM | [11] 47.4 µM | [12] 8.95 µM | [13] > 100 µM | [14] 9.31 µM | [15] 14.2 µM | [16] 30.6 µM | [17] 53.1 µM | [18] 44.8 µM | [19] 16.4 µM | [20] 18.4 µM

CCOP(=O)(OCC)C(Nc1ccc(F)cc1)c1ccccc1 (stereo not given)
inactive: [1] > 100 µM | [2] > 100 µM | [3] > 100 µM | [4] > 100 µM | [6] > 100 µM | [7] 57.9 µM | [8] > 100 µM | [9] > 100 µM | [10] > 100 µM | [11] > 100 µM | [12] 56.5 µM | [13] > 100 µM | [14] > 100 µM | [15] 32 µM | [16] > 100 µM | [17] > 100 µM | [18] > 100 µM | [19] > 100 µM | [20] > 100 µM
> 100 µM: [5]

CN(N)/N=N/c1[nH]cnc1[N+](=O)[O-]
inactive: [1] > 100 µM | [2] 94.8 µM | [3] > 100 µM | [4] 34.8 µM | [6] > 100 µM | [7] 19.6 µM | [8] > 100 µM | [9] > 100 µM | [10] > 100 µM | [11] > 100 µM | [12] > 100 µM | [13] 35.4 µM | [14] > 100 µM | [15] > 100 µM | [16] 42.9 µM | [17] > 100 µM | [18] > 100 µM | [19] > 100 µM | [20] 81.1 µM
> 100 µM: [5]

CSC(=N/N=C(\C)c1ccc(S(=O)(=O)N(C)c2ccccc2)cc1)SC
> 66.7 µM: [5]
inactive: [1] > 66.4 µM | [2] > 65 µM | [3] > 100 µM | [4] > 64.7 µM | [6] > 84.9 µM | [7] > 53.1 µM | [8] > 62.8 µM | [9] > 100 µM | [10] > 100 µM | [11] > 63.1 µM | [12] > 100 µM | [13] > 100 µM | [14] > 63.4 µM | [15] > 62.7 µM | [16] > 66.5 µM | [17] > 67.9 µM | [18] > 62.2 µM | [19] > 100 µM | [20] > 66.4 µM

N#Cc1c(-c2ccc(Cl)cc2)c2c(n(C3OC(CO)C(O)C(O)C3O)c1=S)CCCC2 (stereo not given)
> 100 µM: [5]
inactive: [1] > 100 µM | [2] 56.1 µM | [3] > 100 µM | [4] 53.1 µM | [6] 73.3 µM | [7] 37.8 µM | [8] 54.8 µM | [9] 50.8 µM | [10] > 100 µM | [11] > 100 µM | [12] 63.2 µM | [13] > 100 µM | [14] 69.8 µM | [15] 56.2 µM | [16] > 100 µM | [17] 78.7 µM | [18] > 100 µM | [19] 18.4 µM | [20] 74 µM

CNC(=O)C(C)NC(=O)C(Cc1ccccc1)NC(=O)OC(C)(C)C (stereo not given)
> 100 µM: [5]
inactive: [1] > 100 µM | [2] > 100 µM | [3] > 100 µM | [4] > 100 µM | [6] > 100 µM | [7] > 100 µM | [8] > 100 µM | [9] > 100 µM | [10] > 100 µM | [11] > 100 µM | [12] 51.2 µM | [13] > 100 µM | [14] > 100 µM | [15] > 100 µM | [16] > 100 µM | [17] > 100 µM | [18] > 100 µM | [19] > 100 µM | [20] > 100 µM

O=c1nc2n3c4c(cccc4nc-2c(=O)[nH]1)CCC3
inactive: [1] > 100 µM | [2] > 100 µM | [3] > 100 µM | [4] 47.5 µM | [6] 95.9 µM | [7] > 100 µM | [8] 61.9 µM | [9] 21.6 µM | [10] > 100 µM | [11] > 100 µM | [12] 27.2 µM | [13] > 100 µM | [14] 14 µM | [15] > 100 µM | [16] > 100 µM | [17] > 100 µM | [18] > 100 µM | [19] > 100 µM | [20] > 100 µM
> 100 µM: [5]

CCOC(=O)/C(C(=S)NCc1ccccc1)=C(/N)N1CCCC1
inactive: [1] > 100 µM | [2] > 100 µM | [3] > 100 µM | [4] > 100 µM | [6] > 100 µM | [7] > 100 µM | [8] > 100 µM | [9] > 100 µM | [10] > 100 µM | [11] > 100 µM | [12] > 100 µM | [13] > 100 µM | [14] > 100 µM | [15] > 100 µM | [16] > 100 µM | [17] > 100 µM | [18] > 100 µM | [19] > 100 µM | [20] > 100 µM
> 100 µM: [5]

CC1(CCc2ccccc2)CC1(Br)Br (stereo not given)
54.8 µM: [5]
inactive: [1] 57.9 µM | [2] 19.1 µM | [3] 40.9 µM | [4] 30.3 µM | [6] 30.4 µM | [7] 19.5 µM | [8] 25.5 µM | [9] 22.5 µM | [10] 24 µM | [11] 43.9 µM | [12] 23 µM | [13] 88.9 µM | [14] 18 µM | [15] 40.8 µM | [16] 41.4 µM | [17] > 100 µM | [18] 17.8 µM | [19] 13.1 µM | [20] > 100 µM
